This is an account of results in US20240109934A1, “ANTIBIOTICS WITH IMPROVED DRUG RESISTANCE PROFILE” (priority 2021, published 2024).

In brackets after ≈: the same amount, converted by molar mass.

Data set [1] relates to S. aureus ATCC 29213. The data set is described as follows: MIC by micro-dilution broth method (CLSI). Type of data set: cell-based. Conditions: for Antibacterial activity relative to FA: S. aureus ATCC 29213 MIC.
Data set [2] in a line: Mouse liver microsome stability assay. Type of data set: in vitro ADME. The conditions noted are these: 3 h at 37° C., LC-MS/MS, ± SEM of 3 biological replicates. The method, then: Mouse Liver Microsome Stability Assay. A mixture of PBS (pH 7.4), NADPH regenerating system solution A (Corning Life Sciences), and NADPH regenerating system solution B (Corning Life Sciences) was incubated at 37° C. in a shaking incubator for 5 min. Next, compound was added in DMSO (final concentration 50 μM, 0.5% DMSO) before ice-cold mouse liver microsomes (Thermo Fisher, male CD-1 mice, pooled) were added (final protein concentration of 1 mg/mL). An aliquot was immediately removed, quenched with an equal volume of 100 μM internal standard and centrifuged at 13,000 rcf for 3 min. The reactions were incubated at 37° C. in a shaking incubator for 3 h. A second aliquot was removed and quenched. Samples were analyzed with the 5500 QTRAP LC/MS/MS system (Sciex, Framingham, MA) in Metabolomics Lab of Roy J. Carver Biotechnology Center, University of Illinois at Urbana-Champaign. Software Analyst 1.6.2 was used for data acquisition and analysis. The 1200 series HPLC system (Agilent Technologies, Santa Clara, CA) includes a degasser, an autosampler, and a binary pump. The LC separation was performed on an Agilent Sb-Aq column (4.6×50 mm, […]) with mobile phase A (0.1% formic acid in water) and mobile phase B (0.1% formic acid in acetonitrile). The flow rate was 0.3 mL/min. The linear gradient was as follows: 0-3 min, 100% A; 10-16 min, 5% A; 16.5-22 min, 100% A. The autosampler was set at 10° C. The injection volume was 1 μL. Mass spectra were acquired under both positive (ion spray voltage was +5500 V) and negative (ion spray voltage was −4500 V) electrospray ionization (ESI). The source temperature was 450° C. The curtain gas, ion source gas 1, and ion source gas 2 were 33, 65, and 60 psi, respectively. Multiple reaction monitoring (MRM) was used for quantitation.

The test system of data set [3] is S. aureus ATCC 29213. The data set is described as follows: Resistance frequency, large inoculum method. It counts as cell-based. Conditions: head-to-head with FA, 2×-32× the MIC. The method, then:
Selection of Resistant Mutants. Resistant mutants were selected via the large inoculum method. Briefly, S. aureus ATCC 29213 (1×10^9 CFU) were plated on 100 mm plates of LB agar containing 4, 2, 1, 0.5, and 0.25 μg/mL.

For a further data set, the system named is S. aureus 29213. The data set is described as follows: MIC shift with 50% human serum. Type of data set: cell-based. The conditions noted are these: S. aureus 29213, 50% human serum vs none. The method, then: Antimicrobial Susceptibility Tests. Susceptibility testing was performed in biological triplicate, using the micro-dilution broth method as outlined by the Clinical and Laboratory Standards Institute. […] Human serum (Ultrafiltrate, unspecified gender, 30K Dalton membrane filtered) was purchased from BioIVT (Hicksville, NY).

The subject of data set [4] is multidrug-resistant clinical isolates of E. faecium. The data set can be described thus: MIC against multidrug-resistant clinical isolates of E. faecium. It counts as cell-based.
The subject of data set [5] is multidrug-resistant clinical isolates of S. aureus. The data set is described as follows: MIC against multidrug-resistant clinical isolates of S. aureus. It counts as cell-based. The conditions noted are these: Staphylococcus aureus.

With `CC(=O)O[C@H]1C[C@@]2(C)[C@@H](C[C@@H](O)[C@H]3[C@@]4(C)CC[C@@H](O)[C@@H](C)[C@@H]4CC[C@@]32C)/C1=C(\CCC=C(Cl)Cl)C(=O)O` [Compound 15, (Z)-2-((3R,4S,5S,8S,9S,10S,11R,13R,14S,16S)-16-acetoxy-3,11-dihydroxy-4,8,10,14-tetramethylhexadecahydro-17H-cyclopenta[a]phenanthren-17-ylidene)-6,6-dichlorohex-5-enoic acid], the “Antibacterial activity relative to FA” value in the data set with S. aureus ATCC 29213 [1] is on record as “modest decreases in potency relative to FA”.
On the same count and under the same terms, the result for `CC(=O)O[C@H]1C[C@@]2(C)[C@@H](C[C@@H](O)[C@H]3[C@@]4(C)CC[C@@H](O)[C@@H](C)[C@@H]4CC[C@@]32C)/C1=C(\CCC=C(I)I)C(=O)O` [Compound 17, (Z)-2-((3R,4S,5S,8S,9S,10S,11R,13R,14S,16S)-16-acetoxy-3,11-dihydroxy-4,8,10,14-tetramethylhexadecahydro-17H-cyclopenta[a]phenanthren-17-ylidene)-6,6-diiodohex-5-enoic acid] reads “modest decreases in potency relative to FA”; that for `CC(=O)O[C@H]1C[C@@]2(C)[C@@H](C[C@@H](O)[C@H]3[C@@]4(C)CC[C@@H](O)[C@@H](C)[C@@H]4CC[C@@]32C)/C1=C(\CCC=C(F)F)C(=O)O` [Compound 19, (Z)-2-((3R,4S,5S,8S,9S,10S,11R,13R,14S,16S)-16-acetoxy-3,11-dihydroxy-4,8,10,14-tetramethylhexadecahydro-17H-cyclopenta[a]phenanthren-17-ylidene)-6,6-difluorohex-5-enoic acid], “modest decreases in potency relative to FA”.
Same read-out and setting: the result for `C=CCC/C(C(=O)O)=C1/[C@@H](OC(C)=O)C[C@@]2(C)[C@H]1C[C@@H](O)[C@H]1[C@@]3(C)CC[C@@H](O)[C@@H](C)[C@@H]3CC[C@@]12C` [Compound 21] reads “modest decreases in potency relative to FA”.
Regarding `CC(=O)O[C@H]1C[C@@]2(C)[C@@H](C[C@@H](O)[C@H]3[C@@]4(C)CC[C@@H](O)[C@@H](C)[C@@H]4CC[C@@]32C)/C1=C(\CCC=C1CCOCC1)C(=O)O` [Compound 27, (Z)-2-((3R,4S,5S,8S,9S,10S,11R,13R,14S,16S)-16-acetoxy-3,11-dihydroxy-4,8,10,14-tetramethylhexadecahydro-17H-cyclopenta[a]phenanthren-17-ylidene)-5-(tetrahydro-4H-pyran-4-ylidene)pentanoic acid], the “Metabolic Stability in Mouse Liver Microsomes (percent remaining)” value in data set [2] was determined as 86 ± 5%. In addition, the “Resistance frequency relative to FA” value with S. aureus ATCC 29213 [3] is given as “worse resistance frequency relative to FA”. In the data set on S. aureus 29213, the “Fold Change Increase in MIC with 50% Human Serum” value amounted to 32X. Further, the “Antibacterial activity relative to FA” value in the data set with S. aureus ATCC 29213 [1] is “equipotent activity to FA”. In addition, in the data set on S. aureus ATCC 29213 [1] (Staphylococcus aureus, ATCC29213, WT S. aureus ATCC 29213, n = 3, read-out: MIC Without Human Serum), the MIC is 0.125 µg/mL (≈ 0.224 µM).
For `CC(=O)O[C@H]1C[C@@]2(C)[C@@H](C[C@@H](O)[C@H]3[C@@]4(C)CC[C@@H](O)[C@@H](C)[C@@H]4CC[C@@]32C)/C1=C(\CCCC(C)C)C(=O)O` [Compound 28, (Z)-2-((3R,4S,5S,8S,9S,10S,11R,13R,14S,16S)-16-acetoxy-3,11-dihydroxy-4,8,10,14-tetramethylhexadecahydro-17H-cyclopenta[a]phenanthren-17-ylidene)-6-methylheptanoic acid], in the data set with S. aureus ATCC 29213 [1], the “Antibacterial activity relative to FA” value is listed as “modest decreases in potency relative to FA”.
`CN[C@H](CC(C)C)C(=O)N[C@H]1C(=O)N[C@@H](CC(N)=O)C(=O)N[C@H]2C(=O)N[C@H]3C(=O)N[C@H](C(=O)N[C@H](C(=O)O)c4cc(O)cc(O)c4-c4cc3ccc4O)[C@H](O)c3ccc(c(Cl)c3)Oc3cc2cc(c3O[C@@H]2O[C@H](CO)[C@@H](O)[C@H](O)[C@H]2O[C@H]2C[C@](C)(N)[C@H](O)[C@H](C)O2)Oc2ccc(cc2Cl)[C@H]1O` [Vancomycin, vancomycin]: the MIC is 512 µg/mL (≈ 353 µM) in data set [4] (Enterococcus faecium, E. faecium AR0572 (CDC)); 0.5 µg/mL (≈ 0.345 µM) in data set [4] (Enterococcus faecium, E. faecium AR0574 (CDC)); 512 µg/mL (≈ 353 µM) in data set [4] (Enterococcus faecium, E. faecium AR0575 (CDC)); 1 µg/mL (≈ 0.69 µM) in data set [4] (Enterococcus faecium, E. faecium AR0576 (CDC)); 0.5 µg/mL (≈ 0.345 µM) in data set [4] (Enterococcus faecium, E. faecium AR0578 (CDC)); 0.5 µg/mL (≈ 0.345 µM) in data set [4] (Enterococcus faecium, E. faecium AR0579 (CDC)). For the same molecule, the MIC turned out to be 512 µg/mL (≈ 353 µM) in data set [4] (VRE with high levels of vancomycin resistance); 4 µg/mL (≈ 2.76 µM) in data set [5] (NRS3, S. aureus NRS3 (NARSA)); 4 µg/mL (≈ 2.76 µM) in data set [5] (NRS4, S. aureus NRS4 (NARSA)); 8 µg/mL (≈ 5.52 µM) in data set [5] (NRS17, S. aureus NRS17 (NARSA)); 4 µg/mL (≈ 2.76 µM) in data set [5] (NRS18, S. aureus NRS18 (NARSA)); 4 µg/mL (≈ 2.76 µM) in data set [5] (NRS21, S. aureus NRS21 (NARSA)). For the same molecule, the MIC came out at 4 µg/mL (≈ 2.76 µM) in data set [5] (NRS22, S. aureus NRS22 (NARSA)); 4 µg/mL (≈ 2.76 µM) in data set [5] (NRS23, S. aureus NRS23 (NARSA)); 4 µg/mL (≈ 2.76 µM) in data set [5] (NRS24, S. aureus NRS24 (NARSA)); 2 µg/mL (≈ 1.38 µM) in data set [5] (NRS26, S. aureus NRS26 (NARSA)); 4 µg/mL (≈ 2.76 µM) in data set [5] (NRS27, S. aureus NRS27 (NARSA)); 2 µg/mL (≈ 1.38 µM) in data set [5] (NRS29, S. aureus NRS29 (NARSA)). The MIC in data set [5] (NRS51, S. aureus NRS51 (NARSA)) was found to be 4 µg/mL (≈ 2.76 µM); in data set [5] (NRS68, S. aureus NRS68 (NARSA)), 4 µg/mL (≈ 2.76 µM); in data set [5] (NRS73, S. aureus NRS73 (NARSA)), 4 µg/mL (≈ 2.76 µM); in data set [5] (NRS74, S. aureus NRS74 (NARSA)) it was 8 µg/mL (≈ 5.52 µM); in data set [5] (NRS76, S. aureus NRS76 (NARSA)), 4 µg/mL (≈ 2.76 µM); in data set [5] (NRS77, S. aureus NRS77 (NARSA), no noted resistance), 1 µg/mL (≈ 0.69 µM). The MIC in data set [5] (NRS382, S. aureus NRS382 (NARSA)) stood at 2 µg/mL (≈ 1.38 µM); in data set [5] (NRS383, S. aureus NRS383 (NARSA)) it was 0.5 µg/mL (≈ 0.345 µM); in data set [5] (NRS384, S. aureus NRS384 (NARSA)), 1 µg/mL (≈ 0.69 µM); in data set [5] (S. aureus AR0561 (CDC)), 1 µg/mL (≈ 0.69 µM); in data set [5] (S. aureus AR0562 (CDC)), 2 µg/mL (≈ 1.38 µM); in data set [5] (S. aureus AR0563 (CDC)), 1 µg/mL (≈ 0.69 µM). Also, the MIC in data set [5] (S. aureus AR0564 (CDC)) turned out to be 2 µg/mL (≈ 1.38 µM); in data set [5] (S. aureus AR0565 (CDC)), 2 µg/mL (≈ 1.38 µM); in data set [5] (S. aureus AR0566 (CDC)), 0.5 µg/mL (≈ 0.345 µM); in data set [5] (S. aureus AR0567 (CDC)), 1 µg/mL (≈ 0.69 µM); in data set [5] (S. aureus AR0568 (CDC)), 0.5 µg/mL (≈ 0.345 µM); in data set [5] (S. aureus AR0570 (CDC)), 1 µg/mL (≈ 0.69 µM).
